Inhibition data for two compounds are collected here from ChEMBL document CHEMBL2346515, “Discovery of 4-alkylamino-7-aryl-3-cyanoquinoline LRRK2 kinase inhibitors” (Bioorg Med Chem Lett, 2013).

Experiment [1] deals with Tyrosine-protein kinase ABL1 (Homo sapiens) (UniProt P00519). Put plainly: Inhibition of ABL1 (unknown origin) at 1 uM by single point assay.
Experiment [2] addresses Serine/threonine-protein kinase 16 (Homo sapiens) (UniProt O75716). Put plainly: Inhibition of STK16 (unknown origin) at 1 uM by single point assay.
In experiment [3] the target is PI3-kinase p110-alpha/p85-alpha (Homo sapiens) (UniProt P27986+P42336). As to the kind of experiment: Inhibition of PIK3CA/PIK3R1 (unknown origin) at 1 uM by single point assay. The experiment is classed as protein-complex assay.
Experiment [4] has as its target T1, Dual specificity protein kinase TTK (Homo sapiens) (UniProt P33981).
T1 sequence (whole entry): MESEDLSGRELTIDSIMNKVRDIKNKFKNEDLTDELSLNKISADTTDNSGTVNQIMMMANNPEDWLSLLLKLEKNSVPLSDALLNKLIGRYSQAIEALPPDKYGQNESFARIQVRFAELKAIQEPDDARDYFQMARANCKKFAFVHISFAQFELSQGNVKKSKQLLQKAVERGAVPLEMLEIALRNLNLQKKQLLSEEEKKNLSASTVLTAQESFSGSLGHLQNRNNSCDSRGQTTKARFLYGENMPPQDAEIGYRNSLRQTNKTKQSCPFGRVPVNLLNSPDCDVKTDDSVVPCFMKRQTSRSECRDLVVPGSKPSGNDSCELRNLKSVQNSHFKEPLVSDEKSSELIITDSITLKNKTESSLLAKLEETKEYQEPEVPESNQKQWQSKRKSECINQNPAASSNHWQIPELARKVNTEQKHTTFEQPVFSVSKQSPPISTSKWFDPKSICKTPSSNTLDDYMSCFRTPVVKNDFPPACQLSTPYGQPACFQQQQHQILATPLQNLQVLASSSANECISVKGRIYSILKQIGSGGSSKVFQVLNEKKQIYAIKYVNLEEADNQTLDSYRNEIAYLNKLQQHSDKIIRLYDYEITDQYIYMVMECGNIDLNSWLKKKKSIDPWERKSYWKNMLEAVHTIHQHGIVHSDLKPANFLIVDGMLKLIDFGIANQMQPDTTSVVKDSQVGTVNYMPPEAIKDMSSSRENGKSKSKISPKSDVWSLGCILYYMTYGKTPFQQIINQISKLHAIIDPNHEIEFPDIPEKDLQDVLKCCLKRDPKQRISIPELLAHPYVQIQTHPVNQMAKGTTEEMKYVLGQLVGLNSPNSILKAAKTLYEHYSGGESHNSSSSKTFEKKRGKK
As to the kind of experiment: Inhibition of TTK (unknown origin) at 1 uM by single point assay.

The target of experiment [5] is Mitogen-activated protein kinase 1 (Homo sapiens) (UniProt P28482). Put plainly: Inhibition of MAPK1 (unknown origin) at 1 uM by single point assay.
Experiment [6] deals with Receptor-interacting serine/threonine-protein kinase 2 (Homo sapiens) (UniProt O43353). As to the kind of experiment: Inhibition of RIPK2 (unknown origin) at 1 uM by single point assay.
Experiment [7] addresses Receptor-type tyrosine-protein kinase FLT3 (Homo sapiens) (UniProt P36888). Put plainly: Inhibition of FLT3 (unknown origin) at 1 uM by single point assay.
The target in experiment [8] is T2, Serine/threonine-protein kinase 3 (Homo sapiens) (UniProt Q13188).
T2 sequence (whole entry): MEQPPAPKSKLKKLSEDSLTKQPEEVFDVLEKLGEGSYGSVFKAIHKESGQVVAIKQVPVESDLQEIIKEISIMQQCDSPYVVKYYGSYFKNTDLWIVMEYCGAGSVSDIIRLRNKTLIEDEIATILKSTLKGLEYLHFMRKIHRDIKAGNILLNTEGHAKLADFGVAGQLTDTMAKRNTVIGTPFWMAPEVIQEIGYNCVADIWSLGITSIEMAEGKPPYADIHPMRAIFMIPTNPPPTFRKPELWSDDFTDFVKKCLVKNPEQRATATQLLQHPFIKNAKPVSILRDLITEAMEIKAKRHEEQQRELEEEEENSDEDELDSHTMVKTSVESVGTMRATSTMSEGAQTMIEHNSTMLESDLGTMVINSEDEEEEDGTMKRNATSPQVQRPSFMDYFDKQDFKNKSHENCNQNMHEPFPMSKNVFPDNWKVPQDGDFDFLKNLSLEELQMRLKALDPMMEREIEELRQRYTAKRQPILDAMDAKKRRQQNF
As to the kind of experiment: Inhibition of STK3 (unknown origin) at 1 uM by single point assay.

Experiment [9] deals with Tyrosine-protein kinase SYK (Homo sapiens) (UniProt P43405). Put plainly: Inhibition of SYK (unknown origin) at 1 uM by single point assay.
The target of experiment [10] is Tyrosine-protein kinase JAK1 (Homo sapiens) (UniProt P23458). Put plainly: Inhibition of JAK1 (unknown origin) at 1 uM by single point assay.
The target of experiment [11] is Receptor tyrosine-protein kinase erbB-4 (Homo sapiens) (UniProt Q15303). Put plainly: Inhibition of ErbB4 (unknown origin) at 1 uM by single point assay.
Experiment [12] deals with T3, Interleukin-1 receptor-associated kinase 4 (Homo sapiens) (UniProt Q9NWZ3).
T3 sequence (whole entry): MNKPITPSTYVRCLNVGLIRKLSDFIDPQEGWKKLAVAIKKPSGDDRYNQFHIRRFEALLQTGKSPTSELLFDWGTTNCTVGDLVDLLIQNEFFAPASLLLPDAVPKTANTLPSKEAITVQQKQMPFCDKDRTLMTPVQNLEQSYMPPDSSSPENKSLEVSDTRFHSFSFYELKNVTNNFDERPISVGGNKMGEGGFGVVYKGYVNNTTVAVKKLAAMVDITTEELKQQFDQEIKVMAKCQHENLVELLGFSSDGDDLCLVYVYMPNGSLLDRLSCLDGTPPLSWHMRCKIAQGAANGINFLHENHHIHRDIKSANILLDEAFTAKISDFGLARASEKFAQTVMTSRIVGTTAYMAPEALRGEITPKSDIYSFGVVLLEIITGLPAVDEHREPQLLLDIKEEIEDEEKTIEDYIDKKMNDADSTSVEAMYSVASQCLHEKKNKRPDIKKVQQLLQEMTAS
Put plainly: Inhibition of IRAK4 (unknown origin) at 1 uM by single point assay.

The target in experiment [13] is Tyrosine-protein kinase Lck (Homo sapiens) (UniProt P06239). As to the kind of experiment: Inhibition of LCK (unknown origin) at 1 uM by single point assay.
Experiment [14] addresses Proto-oncogene tyrosine-protein kinase receptor Ret (Homo sapiens) (UniProt P07949). As to the kind of experiment: Inhibition of RET (unknown origin) at 1 uM by single point assay.
Experiment [15] has as its target Leucine-rich repeat serine/threonine-protein kinase 2 (Homo sapiens, UniProt Q5S007). As to the kind of experiment: Inhibition of LRRK2 (unknown origin) at 1 uM by single point assay.
Experiment [16] concerns the target Serine/threonine-protein kinase MARK2 (Homo sapiens) (UniProt Q7KZI7). Put plainly: Inhibition of MARK2 (unknown origin) at 1 uM by single point assay.
For experiment [17], the target named is Cyclin-dependent kinase 1/cyclin B1 (Homo sapiens) (UniProt P06493+P14635). As to the kind of experiment: Inhibition of CDK1/cyclin B (unknown origin) at 1 uM by single point assay. Type of experiment: protein-complex assay.
Experiment [18] deals with Dual specificity protein kinase CLK1 (Homo sapiens) (UniProt P49759). Put plainly: Inhibition of CLK1 (unknown origin) at 1 uM by single point assay.

Mitogen-activated protein kinase 1 (Homo sapiens), sequence (P28482 whole entry): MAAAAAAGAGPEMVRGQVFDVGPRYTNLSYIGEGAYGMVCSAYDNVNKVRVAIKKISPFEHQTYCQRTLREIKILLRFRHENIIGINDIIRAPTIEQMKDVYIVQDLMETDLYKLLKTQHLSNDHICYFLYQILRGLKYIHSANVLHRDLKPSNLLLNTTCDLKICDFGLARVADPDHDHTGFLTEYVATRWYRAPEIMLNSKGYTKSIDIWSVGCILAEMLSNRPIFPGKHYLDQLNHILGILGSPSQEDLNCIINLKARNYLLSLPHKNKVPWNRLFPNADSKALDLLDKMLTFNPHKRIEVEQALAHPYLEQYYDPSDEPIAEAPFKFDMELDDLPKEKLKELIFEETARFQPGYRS
Leucine-rich repeat serine/threonine-protein kinase 2, sequence (Q5S007 whole entry): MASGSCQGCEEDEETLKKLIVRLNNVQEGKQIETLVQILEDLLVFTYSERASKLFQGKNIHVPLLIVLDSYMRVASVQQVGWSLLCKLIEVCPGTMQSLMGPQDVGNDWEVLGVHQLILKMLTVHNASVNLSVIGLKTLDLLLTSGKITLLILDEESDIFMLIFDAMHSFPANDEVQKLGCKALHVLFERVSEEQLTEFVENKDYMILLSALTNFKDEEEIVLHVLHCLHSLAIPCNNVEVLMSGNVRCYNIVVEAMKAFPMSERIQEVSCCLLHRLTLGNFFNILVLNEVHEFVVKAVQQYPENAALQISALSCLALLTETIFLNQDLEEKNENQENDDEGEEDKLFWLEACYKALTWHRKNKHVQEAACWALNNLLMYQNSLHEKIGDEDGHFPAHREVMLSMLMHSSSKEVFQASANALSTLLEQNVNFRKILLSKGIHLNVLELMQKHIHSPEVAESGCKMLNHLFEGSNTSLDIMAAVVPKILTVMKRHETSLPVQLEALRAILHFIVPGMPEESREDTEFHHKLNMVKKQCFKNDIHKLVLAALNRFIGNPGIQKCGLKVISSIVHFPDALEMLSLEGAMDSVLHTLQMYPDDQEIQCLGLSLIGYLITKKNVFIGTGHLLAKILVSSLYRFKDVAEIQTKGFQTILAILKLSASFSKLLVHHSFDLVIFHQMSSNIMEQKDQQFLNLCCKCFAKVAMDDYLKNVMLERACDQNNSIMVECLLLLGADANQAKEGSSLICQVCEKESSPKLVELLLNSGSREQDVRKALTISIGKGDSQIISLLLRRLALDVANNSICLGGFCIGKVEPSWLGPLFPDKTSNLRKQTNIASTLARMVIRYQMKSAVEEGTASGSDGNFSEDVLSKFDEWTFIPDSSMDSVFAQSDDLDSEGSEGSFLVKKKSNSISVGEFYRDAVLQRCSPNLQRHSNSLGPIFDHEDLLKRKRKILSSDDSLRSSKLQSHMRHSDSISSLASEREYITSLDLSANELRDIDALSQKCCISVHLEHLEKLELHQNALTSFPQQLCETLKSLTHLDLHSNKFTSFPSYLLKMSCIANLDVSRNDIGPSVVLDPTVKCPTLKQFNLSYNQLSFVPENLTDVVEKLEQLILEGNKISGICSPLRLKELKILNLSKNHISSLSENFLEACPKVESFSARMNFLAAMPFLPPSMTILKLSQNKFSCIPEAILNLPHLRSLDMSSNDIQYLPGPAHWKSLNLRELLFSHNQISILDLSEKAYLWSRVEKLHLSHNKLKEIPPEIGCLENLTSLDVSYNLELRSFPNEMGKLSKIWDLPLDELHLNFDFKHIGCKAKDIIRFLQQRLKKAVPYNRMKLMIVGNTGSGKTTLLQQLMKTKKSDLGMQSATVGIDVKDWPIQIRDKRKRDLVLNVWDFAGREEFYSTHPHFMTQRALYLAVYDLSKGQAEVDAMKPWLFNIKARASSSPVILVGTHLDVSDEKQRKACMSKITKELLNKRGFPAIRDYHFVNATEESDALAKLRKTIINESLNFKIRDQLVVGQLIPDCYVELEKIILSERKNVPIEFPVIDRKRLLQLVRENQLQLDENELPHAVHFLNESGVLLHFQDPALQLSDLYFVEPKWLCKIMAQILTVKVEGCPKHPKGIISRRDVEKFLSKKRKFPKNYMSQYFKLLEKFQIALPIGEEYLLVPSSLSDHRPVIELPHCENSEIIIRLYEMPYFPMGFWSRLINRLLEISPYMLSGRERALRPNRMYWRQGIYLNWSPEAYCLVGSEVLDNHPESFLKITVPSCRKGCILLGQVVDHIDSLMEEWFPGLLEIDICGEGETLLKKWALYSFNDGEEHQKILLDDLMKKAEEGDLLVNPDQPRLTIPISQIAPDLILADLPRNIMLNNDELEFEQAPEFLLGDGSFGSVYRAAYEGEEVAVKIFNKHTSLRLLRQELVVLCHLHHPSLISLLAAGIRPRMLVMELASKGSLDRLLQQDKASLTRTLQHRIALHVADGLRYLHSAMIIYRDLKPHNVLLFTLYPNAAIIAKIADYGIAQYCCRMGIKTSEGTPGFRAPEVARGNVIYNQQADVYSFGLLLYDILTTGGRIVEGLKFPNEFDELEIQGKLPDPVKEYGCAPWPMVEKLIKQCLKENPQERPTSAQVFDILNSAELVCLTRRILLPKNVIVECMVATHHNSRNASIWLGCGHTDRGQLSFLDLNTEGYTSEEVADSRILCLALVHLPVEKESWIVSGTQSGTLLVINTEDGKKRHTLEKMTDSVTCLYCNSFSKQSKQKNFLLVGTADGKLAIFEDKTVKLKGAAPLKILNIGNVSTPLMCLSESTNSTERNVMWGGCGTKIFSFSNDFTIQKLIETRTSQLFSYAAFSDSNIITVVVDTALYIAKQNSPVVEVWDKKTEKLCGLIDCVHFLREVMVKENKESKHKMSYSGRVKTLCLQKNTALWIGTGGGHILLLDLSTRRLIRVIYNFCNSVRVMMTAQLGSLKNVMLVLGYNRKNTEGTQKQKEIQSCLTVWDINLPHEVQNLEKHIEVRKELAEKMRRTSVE
Receptor-interacting serine/threonine-protein kinase 2 (Homo sapiens), sequence (O43353 whole entry): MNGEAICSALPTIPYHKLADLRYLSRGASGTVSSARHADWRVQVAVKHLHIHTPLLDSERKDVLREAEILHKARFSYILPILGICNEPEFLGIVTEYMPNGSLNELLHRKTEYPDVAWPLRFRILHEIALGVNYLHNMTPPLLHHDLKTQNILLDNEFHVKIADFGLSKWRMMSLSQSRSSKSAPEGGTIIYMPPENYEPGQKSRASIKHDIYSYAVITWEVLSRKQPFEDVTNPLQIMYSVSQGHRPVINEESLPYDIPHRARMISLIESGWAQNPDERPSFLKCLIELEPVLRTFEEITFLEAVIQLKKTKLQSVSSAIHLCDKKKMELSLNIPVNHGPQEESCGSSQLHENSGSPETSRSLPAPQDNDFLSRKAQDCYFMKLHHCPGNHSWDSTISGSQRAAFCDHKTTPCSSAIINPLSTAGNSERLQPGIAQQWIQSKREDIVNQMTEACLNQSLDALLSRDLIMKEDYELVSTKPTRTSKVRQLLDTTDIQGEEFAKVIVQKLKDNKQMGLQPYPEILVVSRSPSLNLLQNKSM
Tyrosine-protein kinase ABL1 (Homo sapiens), sequence (P00519 whole entry): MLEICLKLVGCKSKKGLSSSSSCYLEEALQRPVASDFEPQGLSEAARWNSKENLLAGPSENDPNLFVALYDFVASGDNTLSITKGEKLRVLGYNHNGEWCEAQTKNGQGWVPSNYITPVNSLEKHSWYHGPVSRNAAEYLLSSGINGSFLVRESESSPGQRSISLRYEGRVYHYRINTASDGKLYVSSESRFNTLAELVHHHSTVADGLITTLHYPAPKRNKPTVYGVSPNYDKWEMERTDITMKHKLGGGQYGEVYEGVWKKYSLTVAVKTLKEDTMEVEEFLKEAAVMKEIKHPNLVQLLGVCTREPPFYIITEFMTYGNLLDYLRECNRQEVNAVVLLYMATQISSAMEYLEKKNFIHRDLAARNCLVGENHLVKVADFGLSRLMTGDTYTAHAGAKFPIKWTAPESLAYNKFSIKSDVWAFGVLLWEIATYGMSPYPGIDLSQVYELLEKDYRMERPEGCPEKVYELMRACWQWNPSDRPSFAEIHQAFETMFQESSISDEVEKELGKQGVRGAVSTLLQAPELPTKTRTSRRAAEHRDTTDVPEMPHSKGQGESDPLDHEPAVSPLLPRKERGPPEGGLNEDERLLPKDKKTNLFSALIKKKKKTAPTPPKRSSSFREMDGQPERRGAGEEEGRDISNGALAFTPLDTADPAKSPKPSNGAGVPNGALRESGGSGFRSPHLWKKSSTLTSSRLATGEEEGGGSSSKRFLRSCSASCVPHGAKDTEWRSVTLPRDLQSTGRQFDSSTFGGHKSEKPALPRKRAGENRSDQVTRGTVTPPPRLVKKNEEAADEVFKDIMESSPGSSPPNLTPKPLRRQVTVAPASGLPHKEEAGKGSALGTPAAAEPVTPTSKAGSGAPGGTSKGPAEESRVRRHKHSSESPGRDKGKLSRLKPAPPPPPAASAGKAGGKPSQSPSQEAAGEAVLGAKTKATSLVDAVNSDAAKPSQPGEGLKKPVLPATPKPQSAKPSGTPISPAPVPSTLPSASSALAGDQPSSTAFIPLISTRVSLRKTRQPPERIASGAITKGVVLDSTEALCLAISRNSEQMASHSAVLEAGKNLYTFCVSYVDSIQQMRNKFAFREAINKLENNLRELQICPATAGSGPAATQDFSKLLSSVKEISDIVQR
Tyrosine-protein kinase Lck (Homo sapiens), sequence (P06239 2-509 limits assumed): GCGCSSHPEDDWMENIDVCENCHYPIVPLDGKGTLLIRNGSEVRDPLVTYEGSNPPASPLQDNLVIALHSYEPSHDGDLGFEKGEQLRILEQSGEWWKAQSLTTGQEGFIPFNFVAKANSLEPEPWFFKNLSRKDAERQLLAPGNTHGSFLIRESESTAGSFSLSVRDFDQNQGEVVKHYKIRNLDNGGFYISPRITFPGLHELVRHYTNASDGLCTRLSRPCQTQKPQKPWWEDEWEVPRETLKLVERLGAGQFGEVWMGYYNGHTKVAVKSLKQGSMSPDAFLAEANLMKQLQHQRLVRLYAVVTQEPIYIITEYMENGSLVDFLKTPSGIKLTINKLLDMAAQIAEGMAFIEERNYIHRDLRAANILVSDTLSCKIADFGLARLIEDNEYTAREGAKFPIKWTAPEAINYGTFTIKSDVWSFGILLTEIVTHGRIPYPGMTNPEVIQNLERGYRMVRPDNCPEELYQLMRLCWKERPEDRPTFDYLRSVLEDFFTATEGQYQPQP

As a reminder, the inhibition is the drop in the measured response relative to a control, in per cent. For the compound `CC(C)Nc1c(C#N)cnc2cc(-c3ccc(S(C)(=O)=O)cc3)ccc12`, the inhibition is 39% in experiment [1]; 3% in experiment [2]; -2% in experiment [3]; -4% in experiment [4]; 10% in [5]; 17% in experiment [6]. Also, the inhibition came to 16% in [7]; 29% in experiment [8]; 80% in [9]; 16% in experiment [10]; 19% in experiment [11]; 29% in experiment [12]. Moreover, the inhibition in experiment [13] is 26%; in experiment [14], 43%; in experiment [15], 82%; in experiment [16], 52%; in [17], 12%; in experiment [18] it was 32%.
On to `CC(C)Nc1c(C#N)cnc2cc(-c3cnn(C)c3)ccc12`, for which the inhibition in [1] was 55%; in [2] it was 10%; in experiment [3], 22%; in [4], -9%; in experiment [5], -2%; in [6], 77%. Moreover, the inhibition in experiment [7] amounted to 84%; in experiment [8] it was 15%; in [9] it was 92%; in experiment [10], 3%; in experiment [11], 5%; in experiment [12] it was 68%. Moreover, the inhibition is 31% in [13]; 41% in [14]; 96% in [15]; 64% in [16]; 14% in experiment [17]; 27% in [18].
